One series deals with T1, hGLP1R (Homo sapiens, UniProt P43220).
T1 construct: expressed in transfected cells; host or cells: HEK-293 CRE-luciferase reporter cells
As to the kind of experiment: hGLP1R CreLuc assay in 0.5% and 100% plasma (HEK-293 CRE-luciferase reporter cells). It counts as cell-based. The note with it: HEK-293 reporter cells. (In general: A reporter such as luciferase makes a cellular process visible.)

The next series concerns the target T2, hGIPR (Homo sapiens, UniProt P48546).
T2 construct: expressed in transfected cells; host or cells: CHO CRE-luciferase reporter cells
T2 sequence (P48546 22-466): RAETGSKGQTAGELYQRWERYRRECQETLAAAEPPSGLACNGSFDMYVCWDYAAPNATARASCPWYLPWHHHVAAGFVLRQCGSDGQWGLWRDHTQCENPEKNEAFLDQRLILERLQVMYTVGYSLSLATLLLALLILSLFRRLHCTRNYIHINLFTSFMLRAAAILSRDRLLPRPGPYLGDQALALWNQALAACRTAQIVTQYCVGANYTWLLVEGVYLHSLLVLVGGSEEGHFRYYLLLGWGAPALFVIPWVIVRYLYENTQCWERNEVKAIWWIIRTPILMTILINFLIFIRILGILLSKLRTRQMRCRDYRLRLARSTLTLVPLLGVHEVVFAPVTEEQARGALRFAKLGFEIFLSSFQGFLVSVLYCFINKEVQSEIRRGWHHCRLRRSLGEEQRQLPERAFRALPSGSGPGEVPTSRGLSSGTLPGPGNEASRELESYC
As to the kind of experiment: hGIPR CreLuc assay in 0.5% and 100% plasma (CHO CRE-luciferase reporter cells). It counts as cell-based.

The nature of series [1]: Solubility in 0.1 M phosphate buffer at pH 7. It counts as physicochemical. The note with it: 0.1 M phosphate buffer at pH 7, 10 mg/mL final peptide concentration, shaking 2 hours at room temperature, peptides as TFA-salts; measured sample pH 6.5-7.0.
Series [2] is described as follows: Mouse PK after intravenous application. It counts as in vivo. The note with it: plasma, male NMRI mice, intravenous 30-60 nmol/kg, non-compartmental analysis. The procedure, abridged: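 Male NMRI mice (30–40 g) dosed 30-60 nmol/kg by tail vein in 50 mM phosphate buffer pH 7.4/3.5% mannitol. Saphenous EDTA blood sampled from conscious animals up to 56 h; plasma peptide quantified by LC-MS. Parameters from non-compartmental analysis of individual profiles.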

For the next series, the system named is Normal NMRI Mice. Briefly: Effect on acute food intake in normal NMRI mice. It counts as in vivo. The following applies: male NMRI mice, single subcutaneous dose 100 nmol/kg, 24 hours food intake normalized to vehicle group. On the procedure: Male NMRI mice were obtained from Janvier (Janvier Labs, France) or from Charles River (Charles River Research Models & Services Germany GmbH) at the age of 3 weeks. The animals get a microchip (Datamars, Slim Microchip T-SL) for individual identification after delivery. They were housed with 4 mice per cage under a 12/12 dark-light cycle, light off at 3 p.m. Room temperature was controlled to 21° C.+/−1° C. and humidity 60%+/−20%. Mice had ad libitum access to regular rodent chow (KLIBA Nafag 3040 or Altromin 1324, Brogaarden, Denmark) and tap water.
Latest transfer into the HM2-System of MBRose, Denmark (real-time monitoring system of food- and water intake) of the animals 5 days before study start, to allow acclimatization to experimental conditions. As the animals were uniquely identified with the microchips, each individual animal was identified by its own microchip upon entry and exit from the food channel via antennae. Randomization of the mice for each study group (n=8; age earliest 6 weeks old) was based on food intake (middle of last three days 24 h-interval) and bodyweight directly before start of the study. A vehicle treated (50 mM phosphate buffer pH 7.4 with 3.5% mannitol) group was included in each experiment. To have the same nutrition standard for each animal the food access was locked eight hours before dark phase. One hour before night, the animals were once treated subcutaneously with the test peptide. Food intake was reported hourly for a period of 24 hours.

The mark [3] stands for this setting: 0.5% human plasma, read-out: hGLP1R 0.5% hP.
Setting [4] is: 0.5% human plasma, read-out: hGIPR 0.5% hP.
[5] abbreviates: 100% human plasma, read-out: hGIPR 100% hP.
Where [6] appears, read: 100% human plasma, read-out: hGLP1R 100% hP.

Read-outs that look alike come from different tables or passages of the source.

We go through three molecules from US20250382344A1, “Soluble GLP1/GIP/NPY2 Receptor Triple Agonists” (Boehringer Ingelheim International GmH, priority 2024, published 2025).

T1 sequence (P43220 24-463): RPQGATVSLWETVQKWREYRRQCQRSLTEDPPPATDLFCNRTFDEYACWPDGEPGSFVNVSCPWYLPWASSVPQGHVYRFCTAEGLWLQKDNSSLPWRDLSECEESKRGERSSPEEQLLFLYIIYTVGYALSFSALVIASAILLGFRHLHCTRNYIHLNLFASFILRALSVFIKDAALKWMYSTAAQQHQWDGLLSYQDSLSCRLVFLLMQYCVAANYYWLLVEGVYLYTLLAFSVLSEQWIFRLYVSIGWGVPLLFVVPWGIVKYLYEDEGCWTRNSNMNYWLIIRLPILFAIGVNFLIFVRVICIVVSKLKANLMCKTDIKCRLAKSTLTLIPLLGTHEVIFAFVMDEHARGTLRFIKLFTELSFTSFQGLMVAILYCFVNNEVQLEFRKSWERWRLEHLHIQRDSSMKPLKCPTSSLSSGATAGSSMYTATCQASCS

On to `CC[C@H](C)[C@H](NC(=O)[C@H](Cc1ccccc1)NC(=O)[C@H](C)NC(=O)C(C)(C)NC(=O)[C@H](CCC(N)=O)NC(=O)[C@H](C)NC(=O)[C@H](CCC(N)=O)NC(=O)[C@H](CCCCN)NC(=O)[C@H](CCC(=O)O)NC(=O)[C@H](CC(C)C)NC(=O)[C@](C)(CC(C)C)NC(=O)[C@@H](NC(=O)[C@H](CO)NC(=O)[C@H](Cc1ccc(O)cc1)NC(=O)[C@H](CC(=O)O)NC(=O)[C@H](CO)NC(=O)[C@@H](NC(=O)[C@H](Cc1ccccc1)NC(=O)[C@@H](NC(=O)CNC(=O)[C@H](CCC(=O)O)NC(=O)C(C)(C)NC(=O)[C@@H](N)Cc1ccc(O)cc1)[C@@H](C)O)[C@@H](C)O)[C@@H](C)CC)C(=O)N[C@@H](CCCNC(=N)N)C(=O)N[C@@H](Cc1c[nH]cn1)C(=O)N[C@@H](CC(C)C)C(=O)N[C@H](C(=O)N[C@@H](CC(N)=O)C(=O)N[C@@H](CCCCNC(=O)[C@@H](N)CCCCNC(=O)CC[C@H](NC(=O)CC[C@H](NC(=O)CC[C@H](NC(=O)CC[C@H](NC(=O)CC[C@H](NC(=O)CC[C@H](NC(=O)CCCCCCCCCCCCCCCCCCC(=O)O)C(=O)O)C(=O)O)C(=O)O)C(=O)O)C(=O)O)C(=O)O)C(=O)NC(C)(C)C(=O)N[C@H](C(=O)N[C@@H](CCCNC(=N)N)C(=O)N[C@@H](CCC(N)=O)C(=O)N[C@@H](CCCNC(=N)N)C(=O)N[C@@H](Cc1ccc(O)cc1)C(N)=O)[C@@H](C)O)[C@@H](C)CC` [Compound 53, Y-Aib-E-G-T-F-T-S-D-Y-S-I-aMeL-L-E-K-Q-A-Q-Aib-A-F-I-R-H-L-I-N-K(1,3)-Aib-T-R-Q-R-Y-NH2.C20DA-gGlu-gGlu-gGlu-gGlu-gGlu-gGlu-eLys(1,2)], for which the EC50 amounted to 0.3 nM at hGLP1R (setting [3]), 0.1 nM on hGIPR (setting [4]) and 1.7 nM on hGIPR (setting [5]). The solubility (as a rule, the dissolved amount per volume that the medium holds) at 2 h in series [1] is 10 mg/mL. In addition, the MRT (as a rule, the average time that molecules of a dose stay in the body) in series [2] stood at 14.4 h. Moreover, the “Acute Food Intake 24 hours 100 nmol/kg [% CTL]” value in the series with Normal NMRI Mice is recorded as 47 % CTL.
Take `CC[C@H](C)[C@H](NC(=O)[C@H](CC(C)C)NC(=O)[C@H](Cc1c[nH]cn1)NC(=O)[C@H](CCCNC(=N)N)NC(=O)[C@@H](NC(=O)[C@H](Cc1ccccc1)NC(=O)[C@H](C)NC(=O)C(C)(C)NC(=O)[C@H](CCC(N)=O)NC(=O)[C@H](C)NC(=O)[C@H](CCC(N)=O)NC(=O)[C@H](CCCCN)NC(=O)[C@H](CCC(=O)O)NC(=O)[C@H](CC(C)C)NC(=O)[C@](C)(CC(C)C)NC(=O)[C@@H](NC(=O)[C@H](CO)NC(=O)[C@H](Cc1ccc(O)cc1)NC(=O)[C@H](CC(=O)O)NC(=O)[C@H](CO)NC(=O)[C@@H](NC(=O)[C@H](Cc1ccccc1)NC(=O)[C@@H](NC(=O)CNC(=O)[C@H](CCC(=O)O)NC(=O)C(C)(C)NC(=O)[C@@H](N)Cc1ccc(O)cc1)[C@@H](C)O)[C@@H](C)O)[C@@H](C)CC)C(C)C)C(=O)N[C@@H](CC(N)=O)C(=O)N[C@@H](CCCCNC(=O)[C@@H](N)CCCCNC(=O)CC[C@H](NC(=O)CC[C@H](NC(=O)CC[C@H](NC(=O)CC[C@H](NC(=O)CC[C@H](NC(=O)CC[C@H](NC(=O)CCCCCCCCCCCCCCCCC(=O)O)C(=O)O)C(=O)O)C(=O)O)C(=O)O)C(=O)O)C(=O)O)C(=O)NC(C)(C)C(=O)N[C@H](C(=O)N[C@@H](CCCNC(=N)N)C(=O)N[C@@H](CCC(N)=O)C(=O)N[C@@H](CCCNC(=N)N)C(=O)N[C@@H](Cc1ccc(O)cc1)C(N)=O)[C@@H](C)O` [Compound 119, Y-Aib-E-G-T-F-T-S-D-Y-S-I-aMeL-L-E-K-Q-A-Q-Aib-A-F-V-R-H-L-I-N-K(1,3)-Aib-T-R-Q-R-Y-NH2.C18DA-gGlu-gGlu-gGlu-gGlu-gGlu-gGlu-eLys(1,2)]: the EC50 is 0.1 nM on hGLP1R (setting [3]), 0.4 nM at hGLP1R (setting [6]), 0.1 nM on hGIPR (setting [4]) and 0.8 nM at hGIPR (setting [5]). The solubility at 2 h in series [1] is 9 mg/mL. In series [2], the MRT is 9.6 h. Moreover, the “Acute Food Intake 24 hours 100 nmol/kg [% CTL]” value in the series on Normal NMRI Mice is 34 % CTL.
In the case of `CC[C@H](C)[C@H](NC(=O)[C@H](CC(C)C)NC(=O)[C@H](Cc1c[nH]cn1)NC(=O)[C@H](CCCNC(=N)N)NC(=O)[C@@H](NC(=O)[C@H](Cc1ccccc1)NC(=O)[C@H](C)NC(=O)C(C)(C)NC(=O)[C@H](CCC(N)=O)NC(=O)[C@H](C)NC(=O)[C@H](CCC(N)=O)NC(=O)[C@H](CCCCN)NC(=O)[C@H](CCC(=O)O)NC(=O)[C@H](CC(C)C)NC(=O)[C@](C)(CC(C)C)NC(=O)[C@@H](NC(=O)[C@H](CO)NC(=O)[C@H](Cc1ccc(O)cc1)NC(=O)[C@H](CC(=O)O)NC(=O)[C@H](CO)NC(=O)[C@@H](NC(=O)[C@H](Cc1ccccc1)NC(=O)[C@@H](NC(=O)CNC(=O)[C@H](CCC(=O)O)NC(=O)C(C)(C)NC(=O)[C@@H](N)Cc1ccc(O)cc1)[C@@H](C)O)[C@@H](C)O)[C@@H](C)CC)C(C)C)C(=O)N[C@@H](CC(N)=O)C(=O)N[C@@H](CCCCNC(=O)[C@@H](N)CCCCNC(=O)CC[C@H](NC(=O)CC[C@H](NC(=O)CC[C@H](NC(=O)CC[C@H](NC(=O)CC[C@H](NC(=O)CC[C@H](NC(=O)CCCCCCCCCCCCCCCCCCC(=O)O)C(=O)O)C(=O)O)C(=O)O)C(=O)O)C(=O)O)C(=O)O)C(=O)NC(C)(C)C(=O)N[C@H](C(=O)N[C@@H](CCCNC(=N)N)C(=O)N[C@@H](CCC(N)=O)C(=O)N[C@@H](CCCNC(=N)N)C(=O)N[C@@H](Cc1ccc(O)cc1)C(N)=O)[C@@H](C)O` [Compound 150, Y-Aib-E-G-T-F-T-S-D-Y-S-I-aMeL-L-E-K-Q-A-Q-Aib-A-F-V-R-H-L-I-N-K(1,3)-Aib-T-R-Q-R-Y-NH2.C20DA-gGlu-gGlu-gGlu-gGlu-gGlu-gGlu-eLys(1,2)], the EC50 at hGLP1R (setting [3]) turned out to be 0.5 nM; at hGLP1R (setting [6]) it was 1.7 nM; on hGIPR (setting [4]), 0.1 nM; on hGIPR (setting [5]) it was 2.8 nM. Moreover, the solubility at 2 h in series [1] was found to be 4.8 mg/mL. The molecule further showed an MRT in series [2] of 15.9 h. Also, in the series with Normal NMRI Mice, the “Acute Food Intake 24 hours 100 nmol/kg [% CTL]” value was found to be 46 % CTL.
